{
  "source": "patent US20050267051A1",
  "about": "“Antineoplastic and anti-HIV conjugates of steroid acid and nucleosides” (priority 2003, published 2005)",
  "key": {"H9 cells [1]": {"system": "H9 cells", "experiment": "Growth inhibition (anti-growth) assay on H9 cells, trypan blue exclusion count", "type": "cell-based, human", "conditions": "for IC50: Homo sapiens, H9", "excerpt": "Anti-growth activity on H-9 cells is summarized by IC50 data (drug concentration measured by […]g/ml needed to inhibit 50% of the cell growth), derived from dose-response curves.\n(§1) Cell growth inhibitory activity against human lymphoblasts (H9 cells) for compounds (4), (5) and (6) is depicted in FIG. 1. […] Conjugate (4) was further tested against ddC resistant H9 cells (H9/ddC cells that have reduced thymidine and deoxycytidine kinase activities); HL60, HL60/araC (human promyclocytic leukemic cell lines, parental and araC resistant), H29, H29/FU (human colon adenocarcinomas, parental and FU resistant), MCF7 (human breast carcinoma) and BL5 (Burkitt lymphoma cell line). At 10 μg/ml, it produced 85-100% growth inhibition in all of these human tumor cell lines.\n(§2) Growth inhibition assays were performed in triplicate by seeding 5×10^4 Cells/ml in 24-well plates (Costar). Test compounds were added, and the trypan blue-excluding cells were counted after 72 hrs of incubation at 37° C. IC50 values were calculated from growth inhibition curves as described in Agarwal, R. P., and Mian, A. Biochem. Pharmacol. 1991, 42, 905 and Agarwal, Ram P., Han, Tieran, Fernandez, Manilyn. Biochemical and Biophysical Research com in un ica lions. 1999, 262, 657."}, "HIV-1": {"system": "HIV-1", "experiment": "Anti-HIV assay with T4 lymphocytes (CEM-SS cell line), XTT, protection against HIV cytopathic effects", "type": "cell-based", "conditions": "for EC50: read-out: EC50 (50% effective concentration against HIV cytopathic effects); for Anti-HIV activity (in words): in vitro anti-HIV bioassays", "excerpt": "(§3) The ester conjugates were subjected to standard in vitro anti-HIV bioassays [see: with T4 lymphocytes (CEM-SS cell line) according to the standard assays described, for example in Bourinbaiar AS, Lee-Huang S. Contraception 1995; 51:319-22 and http://www.iaen.org/files.cgi/7014_Bourinbaiar.pdf. Drug efficacy (EC50) was obtained by adding HIV and AZT conjugate to the cell to measure protection of the drug against HIV-induced celldeath. The cytotoxicity (IC50) data was obtained from adding only the conjugate to the cell to measure cell death caused by the agent. The therapeutic index (TI) is the ratio IC50/EC50. […] These two active agents appear to have less cytotoxicity and weaker anti-HIV potency than AZT. […] This intriguing profile of conjugate (4) prompted further evaluations of its growth inhibition in comparison to (5) and (6).\n(§4) The anti-HIV assay was carried out with T4 lymphocytes (CEM-SS cell line) through the following standard procedure. Agent is dissolved in dimethyl sulfoxide and diluted 1:100 in cell culture medium before preparing serial half-log 10 dilutions. T4 lymphocytes are added and after a brief interval HIV-1 is added, resulting in a 1:200 final dilution of the compound. Uninfected cells with the compound serve as a toxicity control, and infected and uninfected cells without the compound serve basic controls. Cultures are incubated at 37° C. in a 5% carbon dioxide atmosphere for 6 days. The tetrazolium salt, XTT, is added to all wells, and the cultures are incubated to allow formazan color development. Individual wells are analyzed spectrophotometrically to quantitate formazan production, and in addition are viewed microscopically for detection of viable cells and confirmation of protective activity.\n(§5) Drug-treated virus-infected cells are compared with drug-treated non-infected cells and with other appropriate controls (untreated infected and untreated non-infected cells, drug-containing wells without cells, etc.) on the same plate. Data are reviewed in comparison with other tests done at the same time and a determination concerning activity is made (Table 1)."}, "[2]": {"experiment": "Cytotoxicity in uninfected CEM-SS cells (toxicity control of anti-HIV assay)", "type": "cell-based", "conditions": "human, uninfected CEM-SS cells (T4 lymphocytes); CEM-SS cell line, uninfected; average of two repeat experiments; read-out: IC50 (50% inhibitory concentration for cell growth), cytotoxicity", "excerpt": "as §3, §4, §5"}, "[3]": {"system": "T4 lymphocytes (CEM-SS cell line)", "experiment": "Cytotoxicity in uninfected CEM-SS cells (toxicity control of anti-HIV assay)", "type": "cell-based", "excerpt": "as §3, §4, §5"}, "H9/ddC cells": {"system": "H9/ddC cells", "experiment": "Growth inhibition assay, ddC resistant H9 cells", "type": "cell-based, human", "conditions": "10 μg/ml", "excerpt": "as §1, §2"}, "HL60": {"system": "HL60", "experiment": "Growth inhibition assay, HL60", "type": "cell-based, human", "conditions": "10 μg/ml; HL60 promyelocytic leukemic, parental", "excerpt": "as §1, §2"}, "HL60/araC": {"system": "HL60/araC", "experiment": "Growth inhibition assay, HL60/araC", "type": "cell-based, human", "conditions": "10 μg/ml, araC resistant", "excerpt": "as §1, §2"}, "H29/FU": {"system": "H29/FU", "experiment": "Growth inhibition assay, H29/FU", "type": "cell-based, human", "conditions": "10 μg/ml, FU resistant", "excerpt": "as §1, §2"}, "MCF7": {"system": "MCF7", "experiment": "Growth inhibition assay, MCF7", "type": "cell-based, human", "conditions": "10 μg/ml; MCF7 breast carcinoma", "excerpt": "as §1, §2"}, "H9 cells [4]": {"system": "H9 cells", "experiment": "Apoptosis assay, Annexin V-FITC and propidium iodide staining, flow cytometry", "type": "cell-based, human", "conditions": "10 μg/ml, 48 hrs; FIG. 4", "method": "In the experiments, fractions of cells in various stages of apoptotic death were assessed according to standard assays [see, e.g., http://www.blackwell-synergy.com/links/doi/10.1046/j.1365-2184.2003.00283.x/abs/; http://64.177.90.157/pfpc/Fluoride_Machalinski—2003.pdf and http://jpet.aspetjournals.org/cgi/content/full/310/1/126 by simultaneous Annexin V and propidium iodide staining using flow cytometry.\nApoptosis experiments were carried out by treating H9 Cells […] with compound 4 (10 μg/ml), AZT (10 μg/ml) or cholenic acid (10 μg/ml) for 48 hrs. Cells were collected by centrifugation, washed with growth medium, and stained with Annexin V-FITC and propidium iodide (apoptosis dilution kit; Sigma), according to the manufacturer's protocol, and the fluorescence was analyzed via flow cytometry."}, "[5]": {"conditions": "H-9 cells, derived from dose-response curves, read-out: IC50 (drug concentration needed to inhibit 50% of the cell growth), anti-growth activity on H-9 cells"}, "[6]": {"conditions": "FIG. 1, 72 hrs incubation, read-out: IC50, cell growth inhibitory activity against human lymphoblasts (H9 cells)"}},
  "note": "Like-named read-outs stand apart in the source and are kept apart here.",
  "data": [
    {"molecule": "CC(=O)O[C@@H]1CCC2(C)C(CCC3C2CCC2(C)C(C(C)CCC(=O)OCC4OC(n5cc(C)c(=O)[nH]c5=O)C[C@@H]4N=[N+]=[N-])CCC32)C1", "note": "(stereo partly drawn) [C, 3α-Acetyloxy-5[…]-Cholanic acid, 5′-(3′-azido-3′-deoxythymidinyl) ester]", "values": [
      {"measurement": "IC50", "setting": "H9 cells [1]; [5]", "result": 4, "unit": "µg/mL"}
    ]},
    {"molecule": "Cc1cn(C2C[C@H](N=[N+]=[N-])C(COC(=O)[C@@H]3OC(C)(C)O[C@@]34CCC3C5CCC6=CC(=O)C=CC6(C)C5C(O)CC34C)O2)c(=O)[nH]c1=O", "note": "(stereo partly drawn) [compound 6, 3′-Azido-3′-deoxythymidine-5′-[11β-hydroxy-17,20α-isopropylidenedioxy-3-oxo-1,4-pregnadiene-21-oate]]", "values": [
      {"measurement": "IC50", "setting": "H9 cells [1]; [6]", "result": "~10", "unit": "µg/mL"},
      {"measurement": "EC50", "setting": "HIV-1; Human immunodeficiency virus 1, CEM-SS cell line, average of two repeat experiments", "result": 65, "unit": "nM"},
      {"measurement": "Anti-HIV activity (in words)", "setting": "HIV-1", "result": "active"},
      {"measurement": "IC50 at 6 days", "setting": "[2]", "result": 12000, "unit": "nM"}
    ]},
    {"molecule": "CC(=O)O[C@H]1CCC2(C)C(=CCC3C2CCC2(C)C(C(C)C(=O)OCC4CCC(n5cc(C)c(=O)[nH]c5=O)O4)CCC32)C1", "note": "(stereo partly drawn) [E, 3β-Acetyloxy-23,24-bisnor-5-cholenic acid, 5′-(3′-deoxythymidinyl) ester]", "values": [
      {"measurement": "IC50", "setting": "H9 cells [1]; [5]", "result": 3, "unit": "µg/mL"}
    ]},
    {"molecule": "Cc1cn(C2C[C@H](N=[N+]=[N-])C(COC(=O)CCC(C)C3CCC4C5CCC6CCCCC6(C)C5CCC34C)O2)c(=O)[nH]c1=O", "note": "(stereo partly shown) [A, 5-Cholanic acid, 5′-(3′-azido-3′-deoxythymidinyl) ester]", "values": [
      {"measurement": "IC50", "setting": "H9 cells [1]; [5]", "result": 30, "unit": "µg/mL"}
    ]},
    {"molecule": "Cc1cn(C2C[C@H](N=[N+]=[N-])C(COC(=O)CCC(C)C3CCC4C5C(=O)CC6CC(=O)CCC6(C)C5CC(=O)C34C)O2)c(=O)[nH]c1=O", "note": "(stereo partly drawn) [B, 5β-Cholanic acid-3,7,12-trione, 5′-(3′-azido-3′-deoxythymidinyl) ester]", "values": [
      {"measurement": "IC50", "setting": "H9 cells [1]; [5]", "result": 30, "unit": "µg/mL"}
    ]},
    {"molecule": "3′-Azido-3′-deoxythymidine-5′-[3β-acetyloxy-22,23-bisnor-5-cholenate] [compound 4]", "values": [
      {"measurement": "cytotoxicity after 24 hrs drug exposure", "setting": "H9 cells [1]; 5 μg/ml, 24 hrs exposure, FIG. 3", "result": "Substantially more cytotoxicity"},
      {"measurement": "cytotoxicity after 72 hrs drug exposure", "setting": "H9 cells [1]; 5 μg/ml, 72 hrs exposure, FIG. 3", "result": "only gave a plateau"},
      {"measurement": "cell growth inhibition after 4 hrs drug exposure", "setting": "H9 cells [1]; 1 or 5 μg/ml, 4 hrs exposure, FIG. 3", "result": "did not produce any inhibition"},
      {"measurement": "cell growth inhibition after 8 hrs drug exposure", "setting": "H9 cells [1]; 1 or 5 μg/ml, 8 hrs incubation, FIG. 3", "result": "20-25%"},
      {"measurement": "IC50, cell growth inhibitory activity against human lymphoblasts (H9 cells)", "setting": "H9 cells [1]; FIG. 1, 72 hrs incubation", "result": "~2.5", "unit": "µg/mL"},
      {"measurement": "Inhibition of growth of H9 cells (in words)", "setting": "H9 cells [1]; FIG. 2, 5 μg/ml for (4)", "result": "prevented growth of H9 cells almost completely"},
      {"measurement": "EC50 (50% effective concentration against HIV cytopathic effects)", "setting": "HIV-1; CEM-SS cell line, average of two repeat experiments", "result": "inactive"},
      {"measurement": "Anti-HIV activity (in words)", "setting": "HIV-1", "result": "no anti-HIV activity"},
      {"measurement": "IC50", "setting": "[3]; CEM-SS cell line, uninfected, average of two repeat experiments, read-out: IC50 (50% inhibitory concentration for cell growth), cytotoxicity", "result": 4700, "unit": "nM"},
      {"measurement": "Cytotoxicity (in words)", "setting": "[3]; CEM-SS cells, conjugate only", "result": "high cytotoxicity"},
      {"measurement": "growth inhibition", "setting": "H9/ddC cells", "result": "85-100%"},
      {"measurement": "growth inhibition", "setting": "HL60", "result": "85-100%"},
      {"measurement": "growth inhibition", "setting": "HL60/araC", "result": "85-100%"},
      {"measurement": "growth inhibition", "setting": "H29/FU", "result": "85-100%"},
      {"measurement": "growth inhibition", "setting": "MCF7", "result": "85-100%"},
      {"measurement": "cells induced to apoptosis", "setting": "H9 cells [4]", "result": "~90", "unit": "%"}
    ]},
    {"molecule": "COC(OC)C(=O)[C@H]1[C@H](C(=O)OC[C@H]2O[C@@H](n3cc(C)c(=O)[nH]c3=O)C[C@@H]2N=[N+]=[N-])C[C@H]2[C@@H]3CCC4=CC(=O)C=C[C@]4(C)[C@H]3[C@@H](O)C[C@@]21C", "note": "[compound 5, 3′-Azido-3′-deoxythymidine-5′-[21,21-dimethoxy-3,20-dioxo-11β-hydroxy-1,4-pregnadiene-16α-carboxylate]]", "values": [
      {"measurement": "IC50", "setting": "H9 cells [1]; [6]", "result": "~12", "unit": "µg/mL"},
      {"measurement": "EC50", "setting": "HIV-1; Human immunodeficiency virus 1, CEM-SS", "result": 35, "unit": "nM"},
      {"measurement": "Anti-HIV activity (in words)", "setting": "HIV-1", "result": "active"}
    ]},
    {"molecule": "CC(=O)O[C@H]1CCC2(C)C(=CCC3C2CCC2(C)C(C(C)C(=O)OCC4C=CC(n5cc(C)c(=O)[nH]c5=O)O4)CCC32)C1", "note": "(stereo partly drawn) [D, 3β-Acetyloxy-23,24-bisnor-5-cholenic acid, 5′-(3′-deoxy-2′,3′-didehydrothymidinyl) ester]", "values": [
      {"measurement": "IC50", "setting": "H9 cells [1]; [5]", "result": 4, "unit": "µg/mL"}
    ]}
  ]
}
